Assay results from paper PMC6478789, “A chemical toolbox for the study of bromodomains and epigenetic signaling” (Nature Communications, 2019).
Like-named read-outs stand apart in the source and are kept apart here. Values belong to the compound of their own block, whether it stands above or below them.

Assays:
[1] = tested on: MDA-MB-436 cells; assay: Confluency with BRPF inhibitors and BAY-876; format: cell-based, human; settings: 3 μM, 7 days
Method: Graph indicates mean, error bars denote s.d. from eight wells (from two independent assays) and p-value was computed using the Benjamini-Hochberg t test; ***p < 0.001. d Immunoblot validation of BRPF knockdown in MDA-MB-436 cells. e Quantitative real-time PCR (RT-qPCR) validation of BRPF knockdown in MDA-MB-436 cells. […] Raw data images are available in Supplementary Fig. 4
(§1) TNBC cell lines were seeded in sterile, transparent 384-well plates at 500 cells per well in 50 µl media. Chemical probes were delivered in dimethyl sulfoxide (DMSO). Cell confluency at 7 days was evaluated using an Incucyte ZOOM live cell imaging device (Essen Bioscence) and analyzed with the Incucyte ZOOM (2016A) software based on phase contrast image.

[2] = target: BRD4(1) (Homo sapiens, UniProt O60885); assay: BROMOscan ligand-binding assay; settings: read-out: KD (BROMOscan); sheet prints no unit (nM)
Description: (§2) BROMOscan is a binding assay based on the well-known KINOMEscan technology. This assay measures the binding of a DNA-tagged bromodomain to an immobilized BRD ligand. If an inhibitor is present, it will compete with the bromodomain binding to the immobilized ligand, resulting in reduction of a quantitative PCR (qPCR) signal in a dose-dependent manner.

[3] = target: BRPF1B; settings: ITC data; ref 11 (suppl.); cited from earlier work
[4] = target: GCN5L2 (Homo sapiens, UniProt Q92830); assay: Histone acetyltransferase (HAT) activity assay; format: biochemical;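 also: selectivity screen of BRD probe compounds across a panel of histone acetyltransferases, HAT activity in % with compound at 1 or 10 µM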
[5] = target: T1, BRD2(2) (Homo sapiens, UniProt P25440); assay: BROMOscan ligand-binding assay; settings: read-out: KD (BROMOscan); sheet prints no unit (nM)
Description: as §2

[6] = target: T2, BRD1 (Homo sapiens, UniProt O95696); assay: BROMOscan ligand-binding assay; settings: read-out: KD (BROMOscan); sheet prints no unit (nM)
T2 sequence (O95696 562-666 limits assumed): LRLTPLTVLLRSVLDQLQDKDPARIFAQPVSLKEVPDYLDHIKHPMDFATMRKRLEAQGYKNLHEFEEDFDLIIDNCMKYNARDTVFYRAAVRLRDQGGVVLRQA
Description: as §2

[7] = target: BRD9; settings: ITC data; ref 11 (suppl.); read-out: KD (nM), off target BRD9; cited from earlier work
[8] = target: T3, BRD2(1) (Homo sapiens, UniProt P25440); assay: BROMOscan ligand-binding assay; settings: read-out: KD (BROMOscan); sheet prints no unit (nM)
Description: as §2

[9] = target: T4, BRD3(2) (Homo sapiens, UniProt Q15059); assay: BROMOscan ligand-binding assay; settings: read-out: KD (BROMOscan); sheet prints no unit (nM)
Description: as §2

[10] = target: T5, MYST1 (Homo sapiens, UniProt Q9H7Z6); assay: Histone acetyltransferase (HAT) activity assay; format: biochemical;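 also: selectivity screen across a panel of histone acetyltransferases, with compounds tested at 1 and 10 µM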
T5 sequence (Q9H7Z6 1-458): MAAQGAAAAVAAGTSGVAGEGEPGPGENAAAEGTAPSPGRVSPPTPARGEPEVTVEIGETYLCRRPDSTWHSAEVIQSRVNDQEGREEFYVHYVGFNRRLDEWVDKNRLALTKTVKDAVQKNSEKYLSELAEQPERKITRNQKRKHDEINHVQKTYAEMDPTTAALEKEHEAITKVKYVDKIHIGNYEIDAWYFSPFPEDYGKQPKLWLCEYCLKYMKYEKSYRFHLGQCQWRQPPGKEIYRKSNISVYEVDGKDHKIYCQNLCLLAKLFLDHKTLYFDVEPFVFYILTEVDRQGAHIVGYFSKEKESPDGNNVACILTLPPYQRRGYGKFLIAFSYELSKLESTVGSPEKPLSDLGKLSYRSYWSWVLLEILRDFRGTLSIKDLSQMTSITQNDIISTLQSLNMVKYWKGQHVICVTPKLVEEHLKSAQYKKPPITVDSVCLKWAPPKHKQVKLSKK

[11] = target: BRD3(1,2) (Homo sapiens, UniProt Q15059); assay: BROMOscan ligand-binding assay; settings: read-out: KD (BROMOscan); sheet prints no unit (nM)
Description: as §2

[12] = target: T6, HAT1 (Homo sapiens, UniProt O14929); assay: Histone acetyltransferase (HAT) activity assay; format: biochemical;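 also: HAT selectivity screen of BRD probe compounds, enzyme activity in % measured with compound at 1 µM and 10 µM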
T6 sequence (O14929 1-419): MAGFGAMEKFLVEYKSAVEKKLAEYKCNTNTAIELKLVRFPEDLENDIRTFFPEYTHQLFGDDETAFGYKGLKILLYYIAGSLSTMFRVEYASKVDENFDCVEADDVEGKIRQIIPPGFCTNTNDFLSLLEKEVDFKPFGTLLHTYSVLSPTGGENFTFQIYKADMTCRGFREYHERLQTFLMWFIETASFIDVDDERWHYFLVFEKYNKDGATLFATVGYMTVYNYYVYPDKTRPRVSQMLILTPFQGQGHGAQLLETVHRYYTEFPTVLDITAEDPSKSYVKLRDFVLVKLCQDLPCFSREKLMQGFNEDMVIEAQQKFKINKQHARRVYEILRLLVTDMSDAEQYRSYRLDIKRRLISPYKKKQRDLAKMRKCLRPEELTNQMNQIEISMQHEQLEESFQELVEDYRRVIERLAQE

[13] = target: EP300 (Homo sapiens, UniProt Q09472); assay: Histone acetyltransferase (HAT) activity assay; format: biochemical;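 also: selectivity screen of bromodomain probe compounds against histone acetyltransferases, with enzyme activity given in percent for compounds tested at 1 and 10 µM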
[14] = target: BRPF2; settings: ITC data; ref 11 (suppl.); cited from earlier work
[15] = target: BRD4(2) (Homo sapiens, UniProt O60885); assay: BROMOscan ligand-binding assay; settings: read-out: KD (BROMOscan); sheet prints no unit (nM)
Description: as §2

[16] = target: T7, ATAD2B (Homo sapiens, UniProt Q9ULI0); assay: BROMOscan ligand-binding assay; settings: read-out: KD (BROMOscan); sheet prints no unit (nM)
T7 sequence (Q9ULI0 951-1066 limits assumed): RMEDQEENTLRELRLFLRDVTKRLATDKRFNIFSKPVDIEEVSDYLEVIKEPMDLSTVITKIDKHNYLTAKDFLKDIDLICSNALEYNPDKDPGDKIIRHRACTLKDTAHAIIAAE
Description: as §2

[17] = target: BRD4(1,2) (Homo sapiens, UniProt O60885); assay: BROMOscan ligand-binding assay; settings: read-out: KD (BROMOscan); sheet prints no unit (nM)
Description: as §2

[18] = target: MYST3 (Homo sapiens, UniProt Q92794); assay: Histone acetyltransferase (HAT) activity assay; format: biochemical;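 also: selectivity screen of bromodomain probe compounds across a panel of histone acetyltransferases, read out as enzyme activity in %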
[19] = target: T8, TAF1(2) (Homo sapiens, UniProt P21675); assay: BROMOscan ligand-binding assay; settings: read-out: KD (BROMOscan); sheet prints no unit (nM)
T8 sequence (P21675 1519-1628 limits assumed): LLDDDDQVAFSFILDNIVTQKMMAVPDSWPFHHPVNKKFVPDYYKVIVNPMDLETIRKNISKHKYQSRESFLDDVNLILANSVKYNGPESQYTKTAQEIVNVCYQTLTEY
Description: as §2

[20] = target: T9, BAZ2B (Homo sapiens, UniProt Q9UIF8); assay: BROMOscan ligand-binding assay; settings: read-out: KD (BROMOscan); sheet prints no unit (nM)
T9 sequence (Q9UIF8 2060-2164 limits assumed): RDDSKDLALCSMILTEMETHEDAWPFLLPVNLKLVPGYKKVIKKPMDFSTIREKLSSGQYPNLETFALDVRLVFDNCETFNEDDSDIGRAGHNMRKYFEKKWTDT
Description: as §2

[21] = target: T10, BRD3(1) (Homo sapiens, UniProt Q15059); assay: BROMOscan ligand-binding assay; settings: read-out: KD (BROMOscan); sheet prints no unit (nM)
Description: as §2

[22] = target: T11, ATAD2A (Homo sapiens, UniProt Q6PL18); assay: BROMOscan ligand-binding assay; settings: read-out: KD (BROMOscan); sheet prints no unit (nM)
T11 sequence (Q6PL18 980-1092 limits assumed): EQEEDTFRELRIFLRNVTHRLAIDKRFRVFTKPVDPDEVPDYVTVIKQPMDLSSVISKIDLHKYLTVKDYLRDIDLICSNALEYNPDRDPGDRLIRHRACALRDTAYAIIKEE
Description: as §2

[23] = target: BRD2(1,2) (Homo sapiens, UniProt P25440); assay: BROMOscan ligand-binding assay; settings: read-out: KD (BROMOscan); sheet prints no unit (nM)
Description: as §2

[24] = target: T3, BRD2(1); design: purchased; settings: ITC data; ref 7 (suppl.); cited from earlier work
[25] = target: BRDT(1) (Homo sapiens, UniProt Q58F21); design: purchased; settings: ITC data; ref 7 (suppl.); cited from earlier work
[26] = tested on: three TNBC lines; assay: Combinatorial screen of BRD inhibitors with or without BAY-876 (confluency); format: cell-based, human; settings: 3 μM probe + 3 μM BAY-876
Method: Fig. 6 BRD inhibitors leverage metabolic adaptations induced by glucose transporter I (GLUT1) inhibition in TNBC. a BRD inhibitor screening across ten TNBC cell lines. Cells were treated with indicated BRD inhibitors at 3 μM for 7 days. Confluency was measured using an IncuCyte ZOOM live cell imaging device. Data shown are mean ± s.d. of n = 4 independent cell culture grown and treated cells. A two-sided Student’s t test was used to derive the p-values. b SLC2A1 gene expression in the The Cancer Genome Atlas (TCGA) breast datasets. The cohorts were divided into TNBCs (red) and non-TNBCs (blue) according to PAM50 classification. Gene expression is reported as median-centered expression log2 values. The number of patients (n) per group is indicated. P-values were determined using a Wilcoxon's rank-sum test. c Glucose uptake in MDA-MB-436 cells in response to BAY-876 treatment relative to vehicle. MDA-MB-436 cells were treated with dimethyl sulfoxide (DMSO) or 3 µM BAY-876 for 5 days. Graph indicates mean, error bars denote s.d. from three independent assays and p-value was computed using the Benjamini-Hochberg t test; ***p < 0.001. d Effects of BAY-876 treatment on the intracellular acetyl-CoA level. Graph indicates mean, error bars denote s.d. from three independent assays and p-value was computed using the Benjamini-Hochberg t test; ***p < 0.001. e Effects of BAY-876 treatment on intracellular NAD^+/NADH level. Graph indicates the mean, error bars denote s.d. from three independent assays and p-value computed using the Benjamini-Hochberg t test; **p < 0.01. f Immunoblot analysis of H3 and H4 acetylation in MDA-MB-436 cells before and after BAY-876 treatment. P-value computed using the Benjamini-Hochberg t test; ***p < 0.001. g Cell growth effects of BAY-876 treatment on three representative cell lines. n.s. not significant. h Combinatorial screening of BRD inhibitors with or without 3 μM BAY-876 across ten TNBC cell lines. Cell confluency was obtained from the endpoint Incucyte scanning. (Left) Heatmap of the combinatorial screening results; (Right) Cell confluency after treatment with three potential BRDi candidates at 3 μM in the presence or absence of 3 μM BAY-876 in three representative cell lines. Graph indicates mean, error bars denote s.d. from three independent assays and p-values were computed using the Benjamini-Hochberg t test; **p < 0.01; ***p < 0.001. Raw data images are available in Supplementary Fig. 4
as §1

[27] = target: T1, BRD2(2); design: purchased; method as in ref 7 (suppl.); settings: ITC data; ref 7 (suppl.); cited from earlier work
[28] = target: BRDT(2) (Homo sapiens, UniProt Q58F21); design: purchased; method as in ref 7 (suppl.); settings: ITC data; ref 7 (suppl.); cited from earlier work
[29] = tested on: ten TNBC cell lines; assay: High-throughput screening of bromodomain inhibitors in TNBC panel (confluency); format: cell-based, human; settings: 3 μM, 7 days
Method: Fig. 6 BRD inhibitors leverage metabolic adaptations induced by glucose transporter I (GLUT1) inhibition in TNBC. a BRD inhibitor screening across ten TNBC cell lines. Cells were treated with indicated BRD inhibitors at 3 μM for 7 days. Confluency was measured using an IncuCyte ZOOM live cell imaging device. Data shown are mean ± s.d. of n = 4 independent cell culture grown and treated cells. A two-sided Student’s t test was used to derive the p-values. b SLC2A1 gene expression in the The Cancer Genome Atlas (TCGA) breast datasets. The cohorts were divided into TNBCs (red) and non-TNBCs (blue) according to PAM50 classification. Gene expression is reported as median-centered expression log2 values. The number of patients (n) per group is indicated. P-values were determined using a Wilcoxon's rank-sum test. c Glucose uptake in MDA-MB-436 cells in response to BAY-876 treatment relative to vehicle. MDA-MB-436 cells were treated with dimethyl sulfoxide (DMSO) or 3 µM BAY-876 for 5 days. […]
TNBC cell lines were seeded in sterile, transparent 384-well plates at 500 cells per well in 50 µl media. […] Cell confluency at 7 days was evaluated using an Incucyte ZOOM live cell imaging device (Essen Bioscence) and analyzed with the Incucyte ZOOM (2016A) software based on phase contrast image.

[30] = target: T4, BRD3(2); design: purchased; settings: ITC data; ref 7 (suppl.); cited from earlier work
[31] = target: T10, BRD3(1); design: purchased; settings: ITC data; ref 7 (suppl.); cited from earlier work

Chain of GCN5L2 (Q92830 whole entry, species assumed): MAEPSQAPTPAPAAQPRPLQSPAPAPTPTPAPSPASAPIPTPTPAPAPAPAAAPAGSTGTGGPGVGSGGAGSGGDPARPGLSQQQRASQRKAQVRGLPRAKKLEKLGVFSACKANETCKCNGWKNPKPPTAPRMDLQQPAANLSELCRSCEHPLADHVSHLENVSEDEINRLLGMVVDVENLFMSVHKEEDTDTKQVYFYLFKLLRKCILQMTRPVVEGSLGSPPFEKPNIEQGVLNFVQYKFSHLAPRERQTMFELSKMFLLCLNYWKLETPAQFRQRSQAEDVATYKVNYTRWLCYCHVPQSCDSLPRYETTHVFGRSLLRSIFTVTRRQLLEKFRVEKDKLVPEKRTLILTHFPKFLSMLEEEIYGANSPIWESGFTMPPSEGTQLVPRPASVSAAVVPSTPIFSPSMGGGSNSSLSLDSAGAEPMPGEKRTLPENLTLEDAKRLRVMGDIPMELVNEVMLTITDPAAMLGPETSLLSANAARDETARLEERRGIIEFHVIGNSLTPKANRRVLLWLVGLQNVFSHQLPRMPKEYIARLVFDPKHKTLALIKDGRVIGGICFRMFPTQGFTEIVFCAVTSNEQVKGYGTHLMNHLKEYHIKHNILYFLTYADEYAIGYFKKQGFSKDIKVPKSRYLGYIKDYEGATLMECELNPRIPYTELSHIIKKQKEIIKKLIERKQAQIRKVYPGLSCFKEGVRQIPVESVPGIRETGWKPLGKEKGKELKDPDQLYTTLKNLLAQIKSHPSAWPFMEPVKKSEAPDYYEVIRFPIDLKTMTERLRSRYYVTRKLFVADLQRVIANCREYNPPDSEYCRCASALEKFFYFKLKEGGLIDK
Chain of MYST3 (Q92794 whole entry, species assumed): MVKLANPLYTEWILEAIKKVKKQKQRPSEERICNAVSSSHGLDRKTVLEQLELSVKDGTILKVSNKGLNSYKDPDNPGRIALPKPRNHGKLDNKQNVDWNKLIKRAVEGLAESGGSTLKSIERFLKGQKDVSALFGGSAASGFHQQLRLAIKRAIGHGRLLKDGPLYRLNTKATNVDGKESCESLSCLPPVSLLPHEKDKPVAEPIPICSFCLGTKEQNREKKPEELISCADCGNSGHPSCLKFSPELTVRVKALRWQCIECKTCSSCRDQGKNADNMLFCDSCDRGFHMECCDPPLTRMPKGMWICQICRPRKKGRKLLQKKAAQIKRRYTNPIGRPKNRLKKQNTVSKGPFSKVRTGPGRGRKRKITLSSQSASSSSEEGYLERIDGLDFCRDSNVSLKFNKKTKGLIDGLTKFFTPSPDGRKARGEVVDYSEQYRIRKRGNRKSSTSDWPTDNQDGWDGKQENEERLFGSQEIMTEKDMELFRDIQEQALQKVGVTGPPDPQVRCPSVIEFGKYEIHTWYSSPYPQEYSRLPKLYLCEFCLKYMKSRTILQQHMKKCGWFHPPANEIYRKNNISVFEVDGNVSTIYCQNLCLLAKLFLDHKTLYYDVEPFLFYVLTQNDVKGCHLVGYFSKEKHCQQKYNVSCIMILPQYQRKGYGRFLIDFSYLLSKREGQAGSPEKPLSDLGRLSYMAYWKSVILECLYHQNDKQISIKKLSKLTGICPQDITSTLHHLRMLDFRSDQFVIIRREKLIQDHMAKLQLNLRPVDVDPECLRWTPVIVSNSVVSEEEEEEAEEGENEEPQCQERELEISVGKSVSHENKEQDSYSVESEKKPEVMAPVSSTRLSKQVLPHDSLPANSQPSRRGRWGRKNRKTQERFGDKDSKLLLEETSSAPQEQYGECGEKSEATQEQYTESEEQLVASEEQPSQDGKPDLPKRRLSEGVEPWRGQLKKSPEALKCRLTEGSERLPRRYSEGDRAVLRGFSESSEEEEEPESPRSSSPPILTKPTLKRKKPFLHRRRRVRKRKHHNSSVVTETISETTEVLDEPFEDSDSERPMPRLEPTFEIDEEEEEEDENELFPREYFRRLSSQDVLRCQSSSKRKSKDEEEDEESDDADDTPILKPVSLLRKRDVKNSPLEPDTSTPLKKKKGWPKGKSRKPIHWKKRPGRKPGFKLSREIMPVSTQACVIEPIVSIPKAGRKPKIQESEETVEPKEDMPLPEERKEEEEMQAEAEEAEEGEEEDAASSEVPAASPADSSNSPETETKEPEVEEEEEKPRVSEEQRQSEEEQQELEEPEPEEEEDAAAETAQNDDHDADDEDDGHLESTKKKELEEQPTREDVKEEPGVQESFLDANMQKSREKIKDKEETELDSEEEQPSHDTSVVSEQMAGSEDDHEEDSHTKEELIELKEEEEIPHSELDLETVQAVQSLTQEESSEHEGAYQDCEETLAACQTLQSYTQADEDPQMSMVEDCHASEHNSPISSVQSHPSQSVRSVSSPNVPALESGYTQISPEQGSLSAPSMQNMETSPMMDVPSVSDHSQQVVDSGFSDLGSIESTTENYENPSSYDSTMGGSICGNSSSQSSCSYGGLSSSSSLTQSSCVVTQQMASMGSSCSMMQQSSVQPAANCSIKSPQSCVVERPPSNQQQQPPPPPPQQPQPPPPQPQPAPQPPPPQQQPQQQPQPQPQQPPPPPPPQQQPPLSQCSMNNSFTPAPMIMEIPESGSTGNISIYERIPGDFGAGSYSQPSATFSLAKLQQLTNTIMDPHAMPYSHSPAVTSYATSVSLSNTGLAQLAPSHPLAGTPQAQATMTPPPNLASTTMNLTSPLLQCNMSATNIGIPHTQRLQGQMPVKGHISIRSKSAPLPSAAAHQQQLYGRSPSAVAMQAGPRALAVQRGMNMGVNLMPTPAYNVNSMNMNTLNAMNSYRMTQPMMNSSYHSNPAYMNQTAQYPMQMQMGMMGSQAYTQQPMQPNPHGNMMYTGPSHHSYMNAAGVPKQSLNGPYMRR
T10 sequence (Q15059 34-140 limits assumed): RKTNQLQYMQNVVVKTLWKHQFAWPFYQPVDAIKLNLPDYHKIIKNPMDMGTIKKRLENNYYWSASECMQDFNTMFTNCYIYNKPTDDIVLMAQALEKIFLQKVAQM
T1 sequence (P25440 344-453 limits assumed): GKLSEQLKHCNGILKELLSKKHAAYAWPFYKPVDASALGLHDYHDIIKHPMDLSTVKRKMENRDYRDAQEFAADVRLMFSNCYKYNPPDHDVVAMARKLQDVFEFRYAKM
T3 sequence (P25440 74-180 limits assumed): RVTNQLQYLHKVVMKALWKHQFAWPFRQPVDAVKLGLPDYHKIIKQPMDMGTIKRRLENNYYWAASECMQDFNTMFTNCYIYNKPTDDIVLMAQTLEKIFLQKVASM
T4 sequence (Q15059 306-415 limits assumed): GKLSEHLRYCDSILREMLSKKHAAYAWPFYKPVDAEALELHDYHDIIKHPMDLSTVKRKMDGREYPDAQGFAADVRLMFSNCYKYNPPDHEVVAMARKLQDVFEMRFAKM
Chain of BRD3(1,2) (Q15059 24-416 limits assumed): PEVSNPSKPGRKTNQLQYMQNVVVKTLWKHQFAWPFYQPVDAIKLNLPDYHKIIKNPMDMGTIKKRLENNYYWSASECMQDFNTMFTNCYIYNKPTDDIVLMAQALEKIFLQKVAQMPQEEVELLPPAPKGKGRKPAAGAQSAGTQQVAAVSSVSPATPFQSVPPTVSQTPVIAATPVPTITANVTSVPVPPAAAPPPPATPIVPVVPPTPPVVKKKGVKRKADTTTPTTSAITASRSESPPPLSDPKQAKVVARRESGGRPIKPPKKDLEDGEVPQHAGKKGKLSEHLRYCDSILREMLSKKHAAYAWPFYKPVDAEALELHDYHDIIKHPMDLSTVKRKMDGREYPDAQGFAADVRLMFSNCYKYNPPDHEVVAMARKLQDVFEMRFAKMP
Chain of BRD2(1,2) (P25440 71-455 limits assumed): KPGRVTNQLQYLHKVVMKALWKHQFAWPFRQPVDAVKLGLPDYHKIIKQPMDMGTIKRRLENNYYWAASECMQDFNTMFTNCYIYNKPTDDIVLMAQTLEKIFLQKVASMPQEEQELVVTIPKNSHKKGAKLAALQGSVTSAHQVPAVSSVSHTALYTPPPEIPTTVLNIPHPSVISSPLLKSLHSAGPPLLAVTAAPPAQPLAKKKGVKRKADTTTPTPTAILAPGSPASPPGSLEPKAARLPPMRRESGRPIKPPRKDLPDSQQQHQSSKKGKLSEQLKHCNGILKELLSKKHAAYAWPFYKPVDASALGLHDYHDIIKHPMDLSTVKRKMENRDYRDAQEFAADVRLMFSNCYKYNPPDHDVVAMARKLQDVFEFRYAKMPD

Kd [2]: 3300 nM
HATs Activity (%) ([4]; 1µM): 100%
HATs Activity (%) ([4]; 10µM): 96%
Kd [5]: > 30000 nM
Kd [6]: 46 nM
Kd [8]: 5900 nM
Kd [9]: > 30000 nM
HATs Activity (%) ([10]; 1µM): 96%
HATs Activity (%) ([10]; 10µM): 91%
Kd [11]: 12000 nM
HATs Activity (%) ([12]; 1µM): 104%
HATs Activity (%) ([12]; 10µM): 104%
HATs Activity (%) ([13]; 1µM): 94%
HATs Activity (%) ([13]; 10µM): 93%
Kd [15]: > 30000 nM
Kd [16]: > 30000 nM
Kd [17]: 15000 nM
HATs Activity (%) ([18]; 1µM): 98%
HATs Activity (%) ([18]; 10µM): 99%
Kd [19]: 4900 nM
Kd [20]: 9400 nM
Kd [21]: 7200 nM
Kd [22]: > 30000 nM
Kd [23]: 12000 nM
Compound: COc1cc(C#N)ccc1S(=O)(=O)Nc1ccc2c(c1)cc(C)c(=O)n2C [NIC57]
synergy with BAY-876 [1]: no synergy
Kd [3]: 31 nM
Kd [7]: 998 nM
Kd [14]: 108 nM

HATs Activity (%) ([4]; 1µM): 96%
HATs Activity (%) ([4]; 10µM): 93%
HATs Activity (%) ([10]; 1µM): 101%
HATs Activity (%) ([10]; 10µM): 95%
HATs Activity (%) ([12]; 1µM): 102%
HATs Activity (%) ([12]; 10µM): 93%
HATs Activity (%) ([13]; 1µM): 99%
HATs Activity (%) ([13]; 10µM): 100%
HATs Activity (%) ([18]; 1µM): 105%
HATs Activity (%) ([18]; 10µM): 86%
Compound: COc1ccccc1S(=O)(=O)Nc1ccc2c(c1)CN(C)C(=O)N2 [PFI-1]
Kd [24]: 108 nM
Kd [25]: 85 nM
viability in combination with BAY-876 [26]: significant decrease in viability
Kd [27]: 144 nM
Kd [28]: 221 nM
anti-proliferative effect (confluency) [29]: strong anti-proliferative effects
Kd [30]: 76 nM
Kd [31]: 80 nM

Compound: COc1ccccc1C(=O)Nc1cc2c(cc1N1CCCC1)n(C)c(=O)n2C [PFI-4]
synergy with BAY-876 [1]: no significant effect
